Reference: patent US20260199214A1, “Personal Care Compositions And Methods For The Same” (Colgate-Palmolive Company, priority 2019, published 2026)

Tested on: neonatal human epidermal keratinocytes (HEKn)
Assay: Intracellular ROS by fluorescence microscopy in keratinocytes exposed to urban dust, with niacinamide and/or FSO (Example 2)
Format: cell-based
Conditions: HEKn cells, 200 μg/mL UD, about one hour exposure; niacinamide/FSO concentration per sample
Experimental: An in vitro study was conducted to analyze the skin protecting benefits of varying concentrations of niacinamide and/or FSO. Particularly, an in vitro study was conducted to analyze the efficacy of varying concentrations of niacinamide and/or FSO in reducing and/or preventing ROS in and on the skin.
To conduct the study, neonatal human epidermal keratinocytes (HEKn) were grown in standard well plates having glass bottoms coated with collagen I. The HEKn were cultured in EpiLife™ media supplemented with human keratinocyte growth supplements (HKGS), both of which are commercially available from ThermoFisher Scientific of Waltham, MA. Stock solutions of FSO, niacinamide, and urban dust (UD) were prepared for the treatment of the keratinocytes. It should be appreciated that the UD is representative of particulate matter (PM) pollution.
The presence or amount of intracellular reactive oxygen species (ROS) was measured using fluorescence microscopy. […] After exposure to the oxidative stress detection reagent and the FSO, niacinamide, and/or UD, the keratinocytes were washed twice with a wash buffer and imaged via fluorescence in the wash buffer. Live adherent cells were imaged using GFP excitation/emission filters, and the ROS levels were quantified from raw images using ImageJ software.

| Compound | ROS Levels (%) Relative to UD Alone [%] |
| --- | --- |
| NC(=O)c1cccnc1 [Sample 13, niacinamide] | −10.79 |
| NC(=O)c1cccnc1 [Sample 14, niacinamide] | −3.89 |
